In ChEMBL document CHEMBL5338752, “Carbamate JNK3 Inhibitors Show Promise as Effective Treatments for Alzheimer's Disease: In Vivo Studies on Mouse Models” (J Med Chem, 2023):
Active and inactive are the calls of the source. The calls are words filed in the database; no cut-off is given here.

Tests used:
[1] = target: T1, Mitogen-activated protein kinase 10 (Homo sapiens, UniProt P53779); experiment: Inhibition of JNK3 (unknown origin) using ATF2 as substrate incubated for 40 mins in presence of [gamma33P]ATP by scintillation counting analysis
T1 sequence (P53779 whole entry): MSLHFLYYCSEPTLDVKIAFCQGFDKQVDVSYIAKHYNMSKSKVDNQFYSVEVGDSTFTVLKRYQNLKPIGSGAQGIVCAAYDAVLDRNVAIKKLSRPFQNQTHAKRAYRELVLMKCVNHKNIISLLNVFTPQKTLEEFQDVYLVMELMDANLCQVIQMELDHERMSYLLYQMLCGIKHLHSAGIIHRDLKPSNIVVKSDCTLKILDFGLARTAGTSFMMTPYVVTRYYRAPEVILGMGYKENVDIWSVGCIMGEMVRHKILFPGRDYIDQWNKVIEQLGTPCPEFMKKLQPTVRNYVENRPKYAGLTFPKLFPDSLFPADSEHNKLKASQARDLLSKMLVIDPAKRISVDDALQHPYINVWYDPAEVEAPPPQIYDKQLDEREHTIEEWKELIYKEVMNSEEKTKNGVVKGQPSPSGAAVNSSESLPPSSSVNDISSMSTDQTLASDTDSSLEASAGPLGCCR

[2] = target: T1, Mitogen-activated protein kinase 10; experiment: Inhibition of JNK3 (unknown origin) at 1.0 uM preincubated for 20 mins followed by 33P-ATP addition and measured after 2 hrs by P81 filter binding method relative to control; conditions: time 140.0 min
[3] = target: Mitogen-activated protein kinase 14 (Homo sapiens) (UniProt Q16539); experiment: Inhibition of p38alpha (unknown origin) at 1.0 uM preincubated for 20 mins followed by 33P-ATP addition and measured after 2 hrs by P81 filter binding method relative to control; conditions: time 140.0 min
Chain of Mitogen-activated protein kinase 14 (Homo sapiens) (Q16539 whole entry): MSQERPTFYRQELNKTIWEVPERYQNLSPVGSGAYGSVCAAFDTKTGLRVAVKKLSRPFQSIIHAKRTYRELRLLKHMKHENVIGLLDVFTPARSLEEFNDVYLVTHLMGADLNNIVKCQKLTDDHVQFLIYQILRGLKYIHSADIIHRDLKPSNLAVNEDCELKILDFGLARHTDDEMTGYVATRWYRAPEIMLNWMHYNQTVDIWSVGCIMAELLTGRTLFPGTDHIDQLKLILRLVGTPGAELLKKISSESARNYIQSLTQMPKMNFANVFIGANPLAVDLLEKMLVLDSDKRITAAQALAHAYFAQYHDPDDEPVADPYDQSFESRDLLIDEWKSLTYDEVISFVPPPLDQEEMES

[4] = Efflux ratio of apparent permeability across basolateral to apical side to apical to basolateral side in human Caco-2 cells; type: ADME, cell-based
[5] = target: Mitogen-activated protein kinase 10 (Rattus norvegicus) (UniProt P49187); experiment: Inhibition of A-beta (1 to 42) induced JNK3 activation in rat cortex neuron cells assessed as reduction in c-Jun phosphorylation levels at 10 to 20 uM incubated for 24 hrs in presence of A-beta (1 to 42) by Western blot analysis; type: cell-based; conditions: dose 10-20 µM
Chain of Mitogen-activated protein kinase 10 (Rattus norvegicus) (P49187 whole entry): as the sequence (P53779 whole entry) above, with Q27H, Y32S, I33V, A34V counted along it

Mus musculus [6] = experiment: Anti-alzheimer activity against triple transgenic mouse alzheimer disease model assessed as spontaneous alteration at 60 mg/kg, po administered daily for 2.2 months and measured after 119 days by Y-maze test (reference value: 45.55+/-2.30%); type: functional; conditions: time 119 day
Mus musculus [7] = experiment: Anti-alzheimer activity against triple transgenic mouse alzheimer disease model assessed as latency time at 30 mg/kg, po administered daily for 2.2 months and measured after 122 to 123 days by passive avoidance test (reference value: 31.3+/-6.9 sec); type: functional; conditions: time 122-123 day
Mus musculus [8] = experiment: Anti-alzheimer activity against triple transgenic mouse alzheimer disease model assessed as latency time at 60 mg/kg, po administered daily for 2.2 months and measured after 122 to 123 days by passive avoidance test (reference value: 31.3+/-6.9 sec); type: functional; conditions: time 122-123 day
Mus musculus [9] = experiment: Anti-alzheimer activity against triple transgenic mouse alzheimer disease model assessed as time spent in platform quadrant at 60 mg/kg, po administered daily for 2.2 months and measured after 137 days by Morris water maze test (reference value: 12.26+/-2.34 sec); type: functional; conditions: time 137 day
Mus musculus [10] = experiment: Anti-alzheimer activity against triple transgenic mouse alzheimer disease model assessed as time spent in target zone at 60 mg/kg, po administered daily for 2.2 months and measured after 137 days by Morris water maze test (reference value: 4.48+/-1.63 sec); type: functional; conditions: time 137 day
Mus musculus [11] = experiment: Anti-alzheimer activity against APP/PS1 dE9 double transgenic mouse model assessed as spontaneous alteration at 60 mg/kg, po administered daily for 2 months and measured after 57 days by Y-maze test (reference value: 40.75+/-2.25%); type: functional; conditions: time 57 day
Mus musculus [12] = experiment: Anti-alzheimer activity against triple transgenic mouse alzheimer disease model assessed as reduction in tau phosphorylation level at S202 residue in hippocampal tissue at 30 to 60 mg/kg by Western blot analysis; type: functional, organism-based; conditions: dose 30-60 mg/kg

With `CNC(=O)Oc1cc(F)c2nc(-c3ccc4ccccc4c3)n(-c3ccnc(N[C@H]4CCCN(C(=O)C5CC5)C4)n3)c2c1` as the molecule, how does the IC50 [1] read?
The IC50 was 21 nM.

What about the inhibition [2] of the same molecule?
Its inhibition is 100%.

And the inhibition [3]?
The inhibition was 20%.

And the efflux ratio [4]?
Its efflux ratio is 14.7.

What about the inhibition [5] of the same molecule?
The inhibition was “Active”.

What about the Activity (Mus musculus [6]) of the same molecule?
The Activity was 54.62%.

And the Time (Mus musculus [7])?
Its Time is 31.6 s.

And the Time (Mus musculus [8])?
Its Time is 64.4 s.

And the Time (Mus musculus [9])?
Its Time is 22.59 s.

And the Time (Mus musculus [10])?
The Time was 16.28 s.

What about the Activity (Mus musculus [11]) of the same molecule?
The Activity was 54.23%.

What about the Activity (Mus musculus [12]) of the same molecule?
Its Activity is “Active”.
